Three substances from patent US10829528B2, “Therapeutic agents for neurological and psychiatric disorders” (VIB VZW, priority 2016, dated 2020) can be followed below.

For one experiment, the target named is T1, GABABR1a (Homo sapiens, UniProt Q9UBS5).
T1 construct: expressed in transfected cells; host or cells: HEK293T
Kind of experiment: Cell surface binding assay: Fc-tagged APP proteins applied to GABABR-transfected HEK293 cells, bound Fc detected by immunofluorescence. It is filed as cell-based. Conditions: Fc-tagged proteins 500 nM, 1 hr at RT; GFP-transfected cells as negative control. The method, then: To confirm the APPα-GABABR interaction and identify the interacting domains, we used a cell-based binding assay. Purified Fc-sAPPα (or its domains) were exogenously applied to GABABR-transfected HEK293 cells. Bound Fc-sAPPα was determined by immunofluorescence.
(§1) We first determined which GABAB subunit and isoform sAPPα bound. The GABABR is comprised of two subunits, the GABABR1 and the GABABR2 subunit. GABABR1 is present as two main isoforms (1a and 1b), with the only difference between these isoforms being the presence of two protein-binding sushi repeats in the ectodomain of GABABR1a (FIG. 1A-B). […] The sequence of the Sushi domain 1 is […].
HEK293T cells were transfected with GFP (as negative control) or pdisplay-GABABR-1a, -1b, or -2 plasmids using Fugene6 (Promega). Twenty-four hours after transfection, the cells were incubated with Fc (as negative control) or the various Fc-tagged APP proteins (500 nM, in Dulbecco's modified Eagle's medium [DMEM] supplemented with 20 mM HEPES [pH 7.4]) for 1 hr at RT. After three brief washes with DMEM/20 mM HEPES (pH 7.4), cells were fixed in 4% paraformaldehyde, 4% sucrose in PBS. […] Image thresholding was set with ImageJ software using constant settings per experiment and the area of Fc binding was measured relative to cell area.

In experiment [1] the target is T2, sushi1 domain of GABABR1a (Homo sapiens, UniProt Q9UBS5).
T2 construct: made in house
Kind of experiment: Isothermal titration calorimetry (ITC) with purified sushi1. It is filed as binding. As to the method: as §1
All ITC experiments were carried out on a MicroCal iTC200 system. For ITC experiments involving APP constructs expressed in HEK293 cells, the purified GABABR1a-Sushi1 domain, sAPPα, CuBDAcD, AcD and CuBD constructs were buffer-exchanged by size exclusion chromatography in 20 mM Na-HEPES pH 7.0, 150 mM NaCl supplemented with 5 mM CaCl2. Concentrated samples were diluted and degassed before the experiment at the concentrations reported in the FIG. legends. sAPP fragments (all of them at 30 μM) were placed in the MicroCal sample cell and matching buffer was placed in the reference cell. Sushi1 (300 μM) was in the syringe and was injected into the cell in a series of 1 μL injections at 25° C. All the datasets were subtracted with a reference data consisting of serial injections of Sushi1 in the cell, containing buffer only under the same conditions. For ITC experiments involving synthetic APP peptides, the Sushi-1 protein was dialysed overnight to PBS buffer. […]
(ITC needs no label: the signal is the heat of the interaction.)

In experiment [2] the test system is primary hippocampal neurons. Kind of experiment: mEPSCs & mIPSCs in cultured primary hippocampal neurons (wild type). The format is cell-based, mouse. Conditions: acute application, 250 nM each. As to the method: mEPSCs & mIPSCs are measured in cultured primary hippocampal neurons at baseline and following acute application of agonists. Excitatory terminals selectively express the sushi domain-containing GABABR1a isoform (ref18), where it functions to inhibit neurotransmitter release (ref 24). Acute exposure of primary hippocampal neurons from wild type mice to 30μM baclofen, a GABABR agonist, or 250 nM sAPPα (Fc cleaved) reduces the frequency of miniature excitatory postsynaptic currents (mEPSCs) by 68% (FIG. 8 a,b) and 39% (FIG. 8 c,d), respectively, with no effect on mEPSC amplitude (FIG. 8e). […] Acute application of 30 μM baclofen or 250 nM purified sAPPα reduces the frequency of miniature inhibitory postsynaptic currents (mIPSCs) by 63% (FIG. 8a, 9a) and 44% (FIG. 8c, 9b), respectively, which is blocked by pretreatment with the GABABR antagonist CGP55845 (CGP, 5 μM) (FIG. 8f, 9d). Application of sAPPα causes a minor (14%) reduction on mIPSC amplitude (FIG. 8e, 9c). […] Baclofen is known to reduce the frequencies of mEPSCs and mIPSCs, which we have also confirmed. […] To confirm that the agonist is acting through GABABR1a, the agonist is tested in cultures with shRNA mediated knockdown of GABABR1a or antisense oligonucleotides mediated exon skipping of the exon encoding the Sushi domain 1 of GABABR1a. Antagonists are tested by treatment in combination with the agonist, Baclofen. […] As an antagonist we test an antibody against the sushi domain sequence (SEQ ID No: 5): […] SWTDMDTPSRCV. An antibody specifically binding to this domain which acts as an antagonist increases the frequencies of mEPSCs and mIPSCs. sAPPα also reduces mEPSC and mIPSC frequency in App/Aplp1 dKO cultures (FIG. 8j, 9f), excluding the possibility that sAPPα interferes with a complex of full-length APP and GABABR1 to exert its effect on GABABR signaling.
Hippocampal neurons were cultured from E18 C57/B16 wild type mice or APP/APLP1 dKO mice (provided by Ulrike Muller46) and plated on poly-D-lysine (Millipore), and laminin (Invitrogen) coated coverslips (Nalge Nunc International). Neurons were maintained in Neurobasal medium (Invitrogen) supplemented with B27, glucose, glutamax, penicillin/streptomycin (Invitrogen) and 25 μM β-mercaptoethanol.
Single neurons from wild type or APP/APLP1 null mutant embryos (E18) were recorded within the large neuronal network at DIV 12-15. The intracellular whole-cell pipette medium contained (in mM): 136 KCl, 18 HEPES, 4 Na-ATP, 4.6 MgCl2, 15 Creatine Phosphate, 1 EGTA and 50 U/ml Phospocreatine Kinase (300 mOsm, pH 7.30). Regular external solution contained 2 mM/2 mM Ca2+/Mg2+(in mM: 140 NaCl, 2.4 KCl, 2 CaCl2), 2 MgCl2, 10 HEPES, 14 Glucose (300 mOsm, pH 7.30)) and TTX (1 μM). Pharmacological reagents (30 μM baclofen, 5 μM CGP), sAPLP1, full length sAPP and sAPP derived peptides (250 nM each) were bath applied (dissolved in external medium described above) using a separate gravity driven application inlet. Recordings were done in whole cell voltage clamp configuration at −70 mV with a double EPC-10 amplifier (HEKA Elektronik) under control of Patchmaster v2×32 software (HEKA Elektronik). Currents were low-pass filtered at 3 kHz and stored at 20 kHz. Patch pipettes were pulled from borosilicate glass using a multi-step puller (P-1000; Sutter Instruments). Pipette resistance ranged from 3 to 5 MΩ and was compensated to 75-80%. Only cells with series resistances <15 MΩ were included in analysis. All recordings were done at room temperature. Spontaneous events were detected using Mini Analysis program (Synaptosoft). mEPSCs and mIPSCs were separated on the basis of their distinct decay kinetics, using a threshold of 5 ms47. Baseline was determined from an average of 60 sec of recordings prior to protein or drug treatment. Effect of treatment was determined from an average of 30 sec recordings after 140 sec of protein or drug treatment.

The next experiment relates to CA1 pyramidal neurons. Kind of experiment: Long-term potentiation in hippocampal slices. It is filed as cell-based. Conditions: non-primed high frequency stimulation protocol for agonists. The method, then:
Long-term potentiation (LTP) is induced by stimulation of Schaffer collateral fibers and the response of CA1 pyramidal neurons is measured by extracellular recordings. For measuring antagonists, a primed burst stimulation protocol is used to activate GABABR receptors. Under this protocol, an antagonist blocks induction of LTP. For measuring agonists, a non-primed high frequency stimulation protocol is used.

T1 sequence (Q9UBS5 20-591 limits assumed): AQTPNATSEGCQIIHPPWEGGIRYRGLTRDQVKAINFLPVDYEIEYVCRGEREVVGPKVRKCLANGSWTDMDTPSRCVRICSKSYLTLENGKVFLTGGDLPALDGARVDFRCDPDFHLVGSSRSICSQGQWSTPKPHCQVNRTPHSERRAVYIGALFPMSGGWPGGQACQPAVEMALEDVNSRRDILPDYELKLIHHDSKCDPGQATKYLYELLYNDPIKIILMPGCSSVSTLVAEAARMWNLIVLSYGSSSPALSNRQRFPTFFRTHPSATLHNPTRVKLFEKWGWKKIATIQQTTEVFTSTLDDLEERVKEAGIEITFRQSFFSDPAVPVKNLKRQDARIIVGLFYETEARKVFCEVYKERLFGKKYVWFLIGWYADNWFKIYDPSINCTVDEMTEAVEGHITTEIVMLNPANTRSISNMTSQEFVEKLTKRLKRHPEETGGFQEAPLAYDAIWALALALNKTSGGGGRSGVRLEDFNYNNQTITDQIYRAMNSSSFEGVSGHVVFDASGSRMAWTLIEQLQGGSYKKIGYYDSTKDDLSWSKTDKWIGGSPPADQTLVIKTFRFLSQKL
T2 sequence (Q9UBS5 26-97): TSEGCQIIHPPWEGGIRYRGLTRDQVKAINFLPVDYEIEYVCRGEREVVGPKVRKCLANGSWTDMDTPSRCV

In the case of “ED: Fc-fusion of the 33 aa extension domain, mouse APP695 195-227aa”, the “binding to GABABR1a-expressing HEK293 cells (immunofluorescence)” value with GABABR1a is on record as “sufficient for binding to GABABR1a”. “GGADTDYADG (listed as Homo sapiens) [residues 211-220, synthetic peptide within the ExD, 211-220AA of APP695]”: the “binding to sushi1 by ITC (in words)” value in experiment [1] is reported as “fails to bind”. In the case of “NVDSADAEEDDSDVWWGGADTDYADGSEDKVVE (listed as Homo sapiens) [Extension domain of human sAPPα (33 amino acids)]”, in experiment [2], the “effect on mEPSC frequency (in words)” value was “reduces the frequencies of mEPSCs and mIPSCs”; the “effect on mIPSC frequency (in words)” value is “reduces the frequencies of mEPSCs and mIPSCs”. The “effect on LTP” value with CA1 pyramidal neurons is listed as “facilitates LTP”.
